Data taken from ChEMBL document CHEMBL1133206, “Antifungal rapamycin analogues with reduced immunosuppressive activity” (Bioorg Med Chem Lett, 2000).
≈ marks a conversion by molar mass, not a printed value.

How the values were obtained:
Candida albicans [1] = assay: In vitro antifungal activity against Candida albicans (CA 10231); type: functional
Pichia kudriavzevii = assay: In vitro antifungal activity against Candida krusei (CK 28838); type: functional
Candida albicans [2] = assay: Compound was screened in vitro for antifungal activity against Candida albicans (CA 38247); type: functional
Candida albicans [3] = assay: Compound was screened in vitro for antifungal activity against Candida albicans (CA 442); type: functional
Candida albicans [4] = assay: In vitro for antifungal activity against Candida albicans (CA 579a); type: functional
Candida albicans [5] = assay: Compound was screened in vitro for antifungal activity against Candida albicans (CA 62376); type: functional
Candida tropicalis = assay: In vitro antifungal activity against Candida tropicalis (CT 750); type: functional
Aspergillus niger = assay: In vitro antifungal activity at a minimum inhibitory concentration (~100 ug/mL) against Aspergillus niger; Not affected; type: functional; settings: Aspergillus niger; read-out: MIC
Candida albicans [6] = assay: In vitro antifungal activity against Candida albicans (CA 38247); Weak; type: functional, organism-based
Candida albicans [7] = assay: In vitro antifungal activity against Candida albicans (CA 442); Weak; type: functional, organism-based
Candida albicans [8] = assay: In vitro antifungal activity against Candida albicans (CA 62376); Weak; type: functional, organism-based
Candida albicans [9] = assay: In vitro antifungal activity against […] (CA 34140); Not affected.; type: functional
Homo sapiens = organism: Homo sapiens; assay: Inhibitory activity against human concanavalin-A proliferation assay; type: functional
Nakaseomyces glabratus = assay: In vitro antifungal activity against Torulopsis glabrata (TG 15545); type: functional

SMILES	MIC (Candida albicans [1]) [µg/mL]	MIC (Pichia kudriavzevii) [µg/mL]	MIC (Candida albicans [2]) [µg/mL]	MIC (Candida albicans [3]) [µg/mL]	MIC (Candida albicans [4]) [µg/mL]	MIC (Candida albicans [5]) [µg/mL]	MIC (Candida tropicalis) [µg/mL]	MIC (Aspergillus niger) [µg/mL]	MIC (Candida albicans [6])	MIC (Candida albicans [7])	MIC (Candida albicans [8])	MIC (Candida albicans [9]) [µg/mL]	IC50 (Homo sapiens) [nM]	MIC (Nakaseomyces glabratus) [µg/mL]
CO[C@H]1C[C@@H]2CC[C@@H](C)[C@@](O)(O2)C(=O)C(=O)N2CCCC[C@H]2C(=O)O[C@H]([C@H](C)C[C@@H]2CC[C@H](n3cnnn3)[C@H](OC)C2)CC(=O)[C@H](C)/C=C(\C)[C@@H](O)[C@@H](OC)C(=O)[C@H](C)C[C@H](C)CCCC/C=C/1C	> 100	> 100	> 100	> 100	> 100	> 100	> 100	–	–	–	–	–	–	–
CO[C@H]1C[C@@H]2CC[C@@H](C)[C@@](O)(O2)C(=O)C(=O)N2CCCC[C@H]2C(=O)O[C@H]([C@H](C)C[C@@H]2CC[C@@H](OC(=O)N3CCNCC3)[C@H](OC)C2)CC(=O)[C@H](C)/C=C(\C)[C@@H](O)[C@@H](OC)C(=O)[C@H](C)C[C@H](C)CCCC/C=C/1C	> 100	> 100	> 100	> 100	> 100	–	> 100	–	–	–	–	–	–	–
CO[C@H]1C[C@@H]2CC[C@@H](C)[C@@](O)(O2)C(=O)C(=O)N2CCCC[C@H]2C(=O)O[C@H]([C@H](C)C[C@@H]2CC[C@@H](OC(=O)N3CCCCC3)[C@H](OC)C2)CC(=O)[C@H](C)/C=C(\C)[C@@H](O)[C@@H](OC)C(=O)[C@H](C)C[C@H](C)CCCC/C=C/1C	> 100	> 100	> 100	> 100	> 100	–	> 100	–	–	–	–	–	–	–
CCCOC(=O)N(O)[C@@H]1C[C@@H]2CC[C@@H](C)[C@@](O)(O2)C(=O)C(=O)N2CCCC[C@H]2C(=O)O[C@H]([C@H](C)C[C@@H]2CC[C@@H](O)[C@H](OC)C2)CC(=O)[C@H](C)/C=C(\C)[C@@H](O)[C@@H](OC)C(=O)[C@H](C)C[C@H](C)/C=C/C=C/C=C/1C	1.56 (≈ 1.56 µM)	0.78 (≈ 0.779 µM)	–	–	3.12 (≈ 3.12 µM)	–	1.56 (≈ 1.56 µM)	~100 (≈ 99.9 µM)	Weak	Weak	Weak	~100 (≈ 99.9 µM)	288	1.56 (≈ 1.56 µM)
COC(=O)N(O)[C@H]1C[C@@H]2CC[C@@H](C)[C@@](O)(O2)C(=O)C(=O)N2CCCC[C@H]2C(=O)O[C@H]([C@H](C)C[C@@H]2CC[C@@H](O)[C@H](OC)C2)CC(=O)[C@H](C)/C=C(\C)[C@@H](O)[C@@H](OC)C(=O)[C@H](C)C[C@H](C)/C=C/C=C/C=C/1C	25 (≈ 25.7 µM)	1.56 (≈ 1.6 µM)	–	–	50 (≈ 51.4 µM)	–	25 (≈ 25.7 µM)	~100 (≈ 103 µM)	Weak	Weak	Weak	~100 (≈ 103 µM)	1.47	1.56 (≈ 1.6 µM)
CCCCOC(=O)N(O)[C@@H]1C[C@@H]2CC[C@@H](C)[C@@](O)(O2)C(=O)C(=O)N2CCCC[C@H]2C(=O)O[C@H]([C@H](C)C[C@@H]2CC[C@@H](O)[C@H](OC)C2)CC(=O)[C@H](C)/C=C(\C)[C@@H](O)[C@@H](OC)C(=O)[C@H](C)C[C@H](C)/C=C/C=C/C=C/1C	1.56 (≈ 1.54 µM)	0.78 (≈ 0.768 µM)	–	–	1.56 (≈ 1.54 µM)	–	1.56 (≈ 1.54 µM)	~100 (≈ 98.5 µM)	Weak	Weak	Weak	~100 (≈ 98.5 µM)	83	0.78 (≈ 0.768 µM)
CCCOC(=O)N(O)[C@H]1C[C@@H]2CC[C@@H](C)[C@@](O)(O2)C(=O)C(=O)N2CCCC[C@H]2C(=O)O[C@H]([C@H](C)C[C@@H]2CC[C@@H](O)[C@H](OC)C2)CC(=O)[C@H](C)/C=C(\C)[C@@H](O)[C@@H](OC)C(=O)[C@H](C)C[C@H](C)/C=C/C=C/C=C/1C	12.5 (≈ 12.5 µM)	0.78 (≈ 0.779 µM)	–	–	12.5 (≈ 12.5 µM)	–	6.25 (≈ 6.24 µM)	~100 (≈ 99.9 µM)	Weak	Weak	Weak	~100 (≈ 99.9 µM)	900	1.56 (≈ 1.56 µM)
CO[C@@H]1C[C@H](C[C@@H](C)[C@@H]2CC(=O)[C@H](C)/C=C(\C)[C@@H](O)[C@@H](OC)C(=O)[C@H](C)C[C@H](C)/C=C/C=C/C=C(\C)[C@H](c3ccc(C)s3)C[C@@H]3CC[C@@H](C)[C@@](O)(O3)C(=O)C(=O)N3CCCC[C@H]3C(=O)O2)CC[C@H]1O	3.12 (≈ 3.18 µM)	1.56 (≈ 1.59 µM)	–	–	12.5 (≈ 12.8 µM)	–	1.56 (≈ 1.59 µM)	~100 (≈ 102 µM)	Weak	Weak	Weak	~100 (≈ 102 µM)	221	0.78 (≈ 0.796 µM)
COC(=O)N(O)[C@@H]1C[C@@H]2CC[C@@H](C)[C@@](O)(O2)C(=O)C(=O)N2CCCC[C@H]2C(=O)O[C@H]([C@H](C)C[C@@H]2CC[C@@H](O)[C@H](OC)C2)CC(=O)[C@H](C)/C=C(\C)[C@@H](O)[C@@H](OC)C(=O)[C@H](C)C[C@H](C)/C=C/C=C/C=C/1C	3.12 (≈ 3.21 µM)	0.39 (≈ 0.401 µM)	–	–	6.25 (≈ 6.42 µM)	–	3.12 (≈ 3.21 µM)	~100 (≈ 103 µM)	Weak	Weak	Weak	~100 (≈ 103 µM)	16	0.78 (≈ 0.801 µM)
CO[C@@H]1C[C@H](C[C@@H](C)[C@@H]2CC(=O)[C@H](C)/C=C(\C)[C@@H](O)[C@@H](OC)C(=O)[C@H](C)C[C@H](C)/C=C/C=C/C=C(\C)[C@@H](N(O)C(=O)N3CCOCC3)C[C@@H]3CC[C@@H](C)[C@@](O)(O3)C(=O)C(=O)N3CCCC[C@H]3C(=O)O2)CC[C@H]1O	25 (≈ 24.3 µM)	6.25 (≈ 6.08 µM)	–	–	50 (≈ 48.6 µM)	–	25 (≈ 24.3 µM)	~100 (≈ 97.2 µM)	Weak	Weak	Weak	~100 (≈ 97.2 µM)	1620	3.12 (≈ 3.03 µM)
CO[C@@H]1C[C@H](C[C@@H](C)[C@@H]2CC(=O)[C@H](C)/C=C(\C)[C@@H](O)[C@@H](OC)C(=O)[C@H](C)C[C@H](C)/C=C/C=C/C=C(\C)[C@@H](N(O)C(=O)OC(C)C)C[C@@H]3CC[C@@H](C)[C@@](O)(O3)C(=O)C(=O)N3CCCC[C@H]3C(=O)O2)CC[C@H]1O	6.25 (≈ 6.24 µM)	0.78 (≈ 0.779 µM)	–	–	12.5 (≈ 12.5 µM)	–	25 (≈ 25 µM)	~100 (≈ 99.9 µM)	Weak	Weak	Weak	~100 (≈ 99.9 µM)	820	0.78 (≈ 0.779 µM)
CO[C@@H]1C[C@H](C[C@@H](C)[C@@H]2CC(=O)[C@H](C)/C=C(\C)[C@@H](O)[C@@H](OC)C(=O)[C@H](C)C[C@H](C)/C=C/C=C/C=C(\C)[C@H](N(O)C(=O)Oc3ccccc3)C[C@@H]3CC[C@@H](C)[C@@](O)(O3)C(=O)C(=O)N3CCCC[C@H]3C(=O)O2)CC[C@H]1O	1.56 (≈ 1.51 µM)	0.78 (≈ 0.753 µM)	–	–	3.12 (≈ 3.01 µM)	–	0.78 (≈ 0.753 µM)	~100 (≈ 96.6 µM)	Weak	Weak	Weak	~100 (≈ 96.6 µM)	170	0.78 (≈ 0.753 µM)
